Assays:
Format in all cases: cell-based
Aeromonas hydrophila = experiment: MIC against Gram-negative bacteria: Aeromonas hydrophila; details: 5×10^5 CFU/mL
In short: (§1)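 Read-out is absence of bacterial growth, with MIC set at the lowest recombinant protein concentration achieving it. Bacteria, pre-grown in LB to McFarland 0.5 and resuspended, were exposed at 5×10^5 CFU/mL to two-fold diluted human EGF domain proteins in triplicate at 37° C, 175 rpm.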

Citrobacter diversus = experiment: MIC against Gram-negative bacteria: Citrobacter diversus; details: 5×10^5 CFU/mL
In short: as §1

Klebsiella pneumonia = experiment: MIC against Gram-negative bacteria: Klebsiella pneumonia; details: 5×10^5 CFU/mL
In short: as §1

Serratia marcescens = experiment: MIC against Gram-negative bacteria: Serratia marcescens; details: 5×10^5 CFU/mL
In short: as §1

Pseudomonas aeruginosa = experiment: MIC against Gram-negative bacteria: Pseudomonas aeruginosa; details: 5×10^5 CFU/mL
In short: as §1

Enterobacter cloacae = experiment: MIC against Gram-negative bacteria: Enterobacter cloacae; details: 5×10^5 CFU/mL
In short: as §1

Proteus mirabilis = experiment: MIC against Gram-negative bacteria: Proteus mirabilis; details: 5×10^5 CFU/mL
In short: as §1

E. coli BL21 = experiment: MIC against Gram-negative bacteria: E. coli BL21; details: 5×10^5 CFU/mL
In short: as §1

Proteus vulgaris = experiment: MIC against Gram-negative bacteria: Proteus vulgaris; details: 5×10^5 CFU/mL
In short: as §1

E. coli DH5α = experiment: Antibacterial activity: MIC and growth curve against E. coli DH5α in 96-well plate; details: minimal inhibitory concentration against E. coli DH5α; 96-well plate, 5×10^5 CFU/mL, 37° C., judged after 8 h
In short: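 Log-phase bacteria (OD600 ~0.5) resuspended in LB at 5×10^5 CFU/mL, exposed to recombinant protein at 50, 25, 12.5 μg/mL final in triplicate, 37 °C shaking at 175 rpm. OD600 read every 30 min; MIC is lowest concentration showing no growth.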

Moraxella catarrhalis = experiment: MIC against Gram-negative bacteria: Moraxella catarrhalis; details: 5×10^5 CFU/mL
In short: as §1

[1] = Aeromonas hydrophila, 96-well plate, 37° C., 10 h
[2] = Citrobacter diversus, 96-well plate, 37° C., 10 h
[3] = Klebsiella pneumonia, 96-well plate, 37° C., 10 h
[4] = Serratia marcescens, 96-well plate, 37° C., 10 h
[5] = Pseudomonas aeruginosa, 96-well plate, 37° C., 10 h
[6] = Enterobacter cloacae, 96-well plate, 37° C., 10 h
[7] = Proteus mirabilis, 96-well plate, 37° C., 10 h
[8] = E. coli BL21, 96-well plate, 37° C., 10 h
[9] = Proteus vulgaris, 96-well plate, 37° C., 10 h
[10] = Moraxella catarrhalis, 96-well plate, 37° C., 10 h

## PRT446 (DVDECVGLQPVCPQGTTCINTGGSFQCVSPECPEGSGNVSYVKTSPFQCE; listed as Homo sapiens)
Aeromonas hydrophila; 96-well plate, 37° C., 10 h
  MIC against A. hydrophila: 50 µg/mL
Citrobacter diversus; 96-well plate, 37° C., 10 h
  MIC against C. diversus: 12.5 µg/mL
Klebsiella pneumonia; 96-well plate, 37° C., 10 h
  MIC against K. pneumonia: 50 µg/mL
Serratia marcescens; 96-well plate, 37° C., 10 h
  MIC against S. marcescens: 25 µg/mL
Pseudomonas aeruginosa; 96-well plate, 37° C., 10 h
  MIC against P. aeruginosa: 12.5 µg/mL
Enterobacter cloacae; 96-well plate, 37° C., 10 h
  MIC against E. cloacae: 12.5 µg/mL
Proteus mirabilis; 96-well plate, 37° C., 10 h
  MIC against P. mirabilis: 25 µg/mL
E. coli BL21; 96-well plate, 37° C., 10 h
  MIC against E. coli BL21: 12.5 µg/mL
Proteus vulgaris; 96-well plate, 37° C., 10 h
  MIC against P. vulgaris: 12.5 µg/mL
E. coli DH5α
  MIC: 12.5 µg/mL
Moraxella catarrhalis; 96-well plate, 37° C., 10 h
  MIC against M. catarrhalis: 50 µg/mL

## PRT1235 (IGPQCEEMCNGQGSCINGTKCICDPGYSGPTCK; listed as Homo sapiens)
Aeromonas hydrophila; [1]
  MIC against A. hydrophila: 12.5 µg/mL
Citrobacter diversus; [2]
  MIC against C. diversus: 12.5 µg/mL
Klebsiella pneumonia; [3]
  MIC against K. pneumonia: 12.5 µg/mL
Serratia marcescens; [4]
  MIC against S. marcescens: 12.5 µg/mL
Pseudomonas aeruginosa; [5]
  MIC against P. aeruginosa: 25 µg/mL
Enterobacter cloacae; [6]
  MIC against E. cloacae: 25 µg/mL
Proteus mirabilis; [7]
  MIC against P. mirabilis: 12.5 µg/mL
E. coli BL21; [8]
  MIC against E. coli BL21: 12.5 µg/mL
Proteus vulgaris; [9]
  MIC against P. vulgaris: 50 µg/mL
E. coli DH5α
  MIC: 12.5 µg/mL
Moraxella catarrhalis; [10]
  MIC against M. catarrhalis: 12.5 µg/mL

## PRT1315 (FGPDCQSVCSCVHGVCNHGPRGDGSCLCFAGYTGPHCD; listed as Homo sapiens)
Aeromonas hydrophila; [1]
  MIC against A. hydrophila: 12.5 µg/mL
Citrobacter diversus; [2]
  MIC against C. diversus: 12.5 µg/mL
Klebsiella pneumonia; [3]
  MIC against K. pneumonia: 100 µg/mL
Serratia marcescens; [4]
  MIC against S. marcescens: 12.5 µg/mL
Pseudomonas aeruginosa; [5]
  MIC against P. aeruginosa: 12.5 µg/mL
Enterobacter cloacae; [6]
  MIC against E. cloacae: 25 µg/mL
Proteus mirabilis; [7]
  MIC against P. mirabilis: 12.5 µg/mL
E. coli BL21; [8]
  MIC against E. coli BL21: 12.5 µg/mL
Proteus vulgaris; [9]
  MIC against P. vulgaris: 50 µg/mL
E. coli DH5α
  MIC: 25 µg/mL
Moraxella catarrhalis; [10]
  MIC against M. catarrhalis: 50 µg/mL

## PRT170 (CTHHKPCKNGATCTNTGQGSYTCSCRPGYTGATC; listed as Homo sapiens)
Aeromonas hydrophila; A. hydrophila, 10 h cultivation at 37° C.
  MIC (μg/mL) A. hydrophila: 25 µg/mL
Citrobacter diversus; C. diversus, 10 h cultivation at 37° C.
  MIC (μg/mL) C. diversus: 12.5 µg/mL
Klebsiella pneumonia; K. pneumonia, 10 h cultivation at 37° C.
  MIC (μg/mL) K. pneumonia: 25 µg/mL
Serratia marcescens; S. marcescens, 10 h cultivation at 37° C.
  MIC (μg/mL) S. marcescens: 12.5 µg/mL
Pseudomonas aeruginosa; P. aeruginosa, 10 h cultivation at 37° C.
  MIC (μg/mL) P. aeruginosa: 12.5 µg/mL
Enterobacter cloacae; E. cloacae, 10 h cultivation at 37° C.
  MIC (μg/mL) E. cloacae: 50 µg/mL
Proteus mirabilis; P. mirabilis, 10 h cultivation at 37° C.
  MIC (μg/mL) P. mirabilis: 50 µg/mL
E. coli BL21; E. coli BL21, 10 h cultivation at 37° C.
  MIC (μg/mL) E. coli BL21: 25 µg/mL
Proteus vulgaris; P. vulgaris, 10 h cultivation at 37° C.
  MIC (μg/mL) P. vulgaris: 25 µg/mL
E. coli DH5α
  MIC: 50 µg/mL
Moraxella catarrhalis; M. catarrhalis, 10 h cultivation at 37° C.
  MIC (μg/mL) M. catarrhalis: 25 µg/mL

## PRT74 (CDCFPHGSHSRTCDMATGQCACKPGVIGRQCNRCDNPFAEVTTLGCEV; listed as Homo sapiens)
Aeromonas hydrophila; [1]
  MIC (μg/mL) A. hydrophila: 12.5 µg/mL
Citrobacter diversus; [2]
  MIC (μg/mL) C. diversus: 12.5 µg/mL
Klebsiella pneumonia; [3]
  MIC (μg/mL) K. pneumonia: 50 µg/mL
Serratia marcescens; [4]
  MIC (μg/mL) S. marcescens: 25 µg/mL
Pseudomonas aeruginosa; [5]
  MIC (μg/mL) P. aeruginosa: 25 µg/mL
Enterobacter cloacae; [6]
  MIC (μg/mL) E. cloacae: 25 µg/mL
Proteus mirabilis; [7]
  MIC (μg/mL) P. mirabilis: 12.5 µg/mL
E. coli BL21; [8]
  MIC (μg/mL) E. coli BL21: 12.5 µg/mL
Proteus vulgaris; [9]
  MIC (μg/mL) P. vulgaris: 12.5 µg/mL
E. coli DH5α
  MIC: 50 µg/mL
Moraxella catarrhalis; [10]
  MIC (μg/mL) M. catarrhalis: 12.5 µg/mL
